Test results taken from patent US20090280160A1, “PHENYLEPHRINE PHARMACEUTICAL FORMULATIONS AND COMPOSITIONS FOR TRANSMUCOSAL ABSORPTION” (Schering-Plough Healthcare Products, Inc., priority 2007, published 2009).
“Also recorded” adds a separate entry of the source.

Experiments:
[1] = in vivo; cited from earlier work
α1a adrenoreceptor [2] = biological target: T1, α1a adrenoreceptor (Homo sapiens, UniProt P35348); experiment: Cellular calcium flux (FLIPR), α1a expressing CHO cells; format: cell-based; conditions: α1a expressing CHO cells
T1 construct: expressed in transfected cells
T1 sequence (P35348 1-466): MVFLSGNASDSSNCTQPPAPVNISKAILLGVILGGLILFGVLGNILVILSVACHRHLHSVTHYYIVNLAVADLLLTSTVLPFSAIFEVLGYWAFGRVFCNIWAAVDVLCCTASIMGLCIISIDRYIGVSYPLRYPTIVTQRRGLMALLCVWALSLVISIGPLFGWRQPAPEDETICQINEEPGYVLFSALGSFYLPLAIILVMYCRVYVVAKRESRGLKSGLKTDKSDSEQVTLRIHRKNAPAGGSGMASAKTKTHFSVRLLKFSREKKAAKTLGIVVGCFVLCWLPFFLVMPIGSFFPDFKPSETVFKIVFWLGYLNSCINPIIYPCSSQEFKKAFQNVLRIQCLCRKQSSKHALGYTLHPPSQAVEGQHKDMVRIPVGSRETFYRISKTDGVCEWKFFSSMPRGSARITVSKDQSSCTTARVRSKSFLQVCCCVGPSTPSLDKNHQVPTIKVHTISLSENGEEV
Procedure: (§1) The affinity and activity of phenylephrine metabolites were evaluated in human recombinant α1 and α2 adrenoreceptor binding and activity assays. […] Affinity of the metabolites was determined by receptor binding assays. Functional activity of the metabolites was assessed using an [^35S]-GTPγS binding exchange assay for the α2 receptor subtypes and a cell-based calcium flux response for the α1 receptor subtypes.
(§2) Intracellular calcium levels were measured using a fluorometric imaging plate reader (FLIPR). Cells expressing α1 adrenoreceptors were cultured overnight at 15,000 cells/well in 96 well black-wall clear bottom plates (Packard). Adherent cells were loaded for 1 hour at 37° C. using the FLIPR Calcium Plus Assay Kit (Molecular Probes, Eugene, Oreg.), which included 2.5 mM probenecid (Sigma). Compounds (at 10 mM in 100% DMSO) were diluted in diluting buffer (HBSS, 20 mM HEPES, 2.5 mM probenecid, 0.5% BSA, pH 7.4). A titration of norepinephrine was included in every experiment and norepinephrine (at 1 μM) was also used as a plate standard on each assay plate. Cells were maintained at 37° C. throughout all calcium measurements. Fluorescence data was collected at 1 second interval for 60 seconds, followed by collection at 2 second intervals for 30 seconds. Background fluorescence was quantitated in wells containing cells with no additions and was subtracted from all experimental samples. All conditions were done in quadruplicate. Non-linear regression analysis using GraphPad Prism was used to calculate EC50 values.
(§3) Each metabolite was evaluated in each assay in at least 2 independent experiments and a representative assay of each metabolite/assay combination is shown.

α1b adrenoreceptor [3] = biological target: T2, α1b adrenoreceptor (Homo sapiens, UniProt P35368); experiment: Cellular calcium flux (FLIPR), α1b expressing CHO cells; format: cell-based; conditions: α1b expressing CHO cells
T2 construct: expressed in transfected cells
T2 sequence (P35368 1-520): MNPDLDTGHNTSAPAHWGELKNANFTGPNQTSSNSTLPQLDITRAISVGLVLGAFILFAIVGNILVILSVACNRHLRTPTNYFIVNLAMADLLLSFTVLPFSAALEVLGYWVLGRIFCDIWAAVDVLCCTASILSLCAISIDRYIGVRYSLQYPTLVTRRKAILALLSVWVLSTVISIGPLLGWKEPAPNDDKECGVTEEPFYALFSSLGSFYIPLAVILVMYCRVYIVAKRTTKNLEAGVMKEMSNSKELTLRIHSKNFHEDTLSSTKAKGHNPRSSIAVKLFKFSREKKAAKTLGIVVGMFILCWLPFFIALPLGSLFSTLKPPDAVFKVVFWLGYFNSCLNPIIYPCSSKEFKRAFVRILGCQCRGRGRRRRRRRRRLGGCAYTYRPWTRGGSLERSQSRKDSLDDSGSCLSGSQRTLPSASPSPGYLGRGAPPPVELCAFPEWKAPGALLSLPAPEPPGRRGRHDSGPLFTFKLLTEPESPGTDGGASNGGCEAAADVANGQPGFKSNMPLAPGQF
Procedure: as §1, §2, §3

α1a adrenoreceptor [4] = biological target: T1, α1a adrenoreceptor; experiment: Competition binding, [3H]-prazosin, α1a CHO cell membranes; conditions: for inhibition of 3H-prazosin binding, α1a (in words): CHO cell membranes
α1b adrenoreceptor [5] = biological target: T2, α1b adrenoreceptor; experiment: Competition binding, [3H]-prazosin, α1b CHO cell membranes; conditions: for inhibition of 3H-prazosin binding, α1b (in words): CHO cell membranes
Procedure: as §1
(§4) Competition Binding Assays
(§5) Competition binding assays for the α2 adrenoreceptors were performed using 20 μg membrane protein per well in binding buffer (75 mM Tris-HCl pH 7.4, 12.5 mM MgCl2, […] EDTA, 0.2% bovine serum albumin). […] Binding was terminated by rapid filtration through GF/C unifilter plates, presoaked with 0.3% polyethylenimine, with five washes with 0.5 ml cold 50 mM Tris-HCl ph 7.4, using a Packard Filtermate Harvester. After drying, bound radioactivity was determined by liquid scintillation counting (Packard TopCount) with Microscint 20, 50 μl/well. Binding data were analyzed using GraphPad Prism.
as §3

α2b adrenoreceptor [6] = biological target: T3, α2b adrenoreceptor (Homo sapiens, UniProt P18089); experiment: [35S]-GTPγS binding exchange, α2b CHO cell membranes; format: biochemical; conditions: for stimulation of [35S]-GTPγS binding, α2b (in words): CHO cell membranes
T3 construct: expressed in transfected cells; host or cells: CHO (Chinese hamster ovary) cells, membranes
T3 sequence (P18089 1-450): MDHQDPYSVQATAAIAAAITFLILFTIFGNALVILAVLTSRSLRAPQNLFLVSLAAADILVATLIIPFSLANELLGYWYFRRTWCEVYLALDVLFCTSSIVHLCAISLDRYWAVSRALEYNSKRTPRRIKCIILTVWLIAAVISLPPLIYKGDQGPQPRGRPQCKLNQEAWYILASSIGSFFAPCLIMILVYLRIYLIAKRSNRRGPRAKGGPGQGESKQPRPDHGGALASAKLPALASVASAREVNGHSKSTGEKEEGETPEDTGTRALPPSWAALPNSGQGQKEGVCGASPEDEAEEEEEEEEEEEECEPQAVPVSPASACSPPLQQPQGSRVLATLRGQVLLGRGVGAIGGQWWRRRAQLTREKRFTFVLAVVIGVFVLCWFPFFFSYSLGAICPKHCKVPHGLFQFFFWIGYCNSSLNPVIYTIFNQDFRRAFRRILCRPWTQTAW
Procedure: as §1
(§6) Assay buffer was 75 mM Tris-HCl pH 7.4, 12.5 mM MgCl2, 2 mM EDTA and 1 μM GDP. Plates were counted on a Packard TopCount. The percent increase over basal binding of [^35S]-GTPγS, a measure of efficacy, was calculated as follows: 100×[[mean total sample cpm−basal cpm]÷by basal cpm]. Basal cpm was defined as the mean cpm in the absence of agonist compound minus the mean non-specific binding cpm.
as §3

α2c adrenoreceptor [7] = biological target: T4, α2c adrenoreceptor (Homo sapiens, UniProt P18825); experiment: [35S]-GTPγS binding exchange, α2c CHO cell membranes; format: biochemical; conditions: for stimulation of [35S]-GTPγS binding, α2c (in words): CHO cell membranes
T4 construct: expressed in transfected cells; host or cells: CHO (Chinese hamster ovary) cells, membranes
T4 sequence (P18825 1-462): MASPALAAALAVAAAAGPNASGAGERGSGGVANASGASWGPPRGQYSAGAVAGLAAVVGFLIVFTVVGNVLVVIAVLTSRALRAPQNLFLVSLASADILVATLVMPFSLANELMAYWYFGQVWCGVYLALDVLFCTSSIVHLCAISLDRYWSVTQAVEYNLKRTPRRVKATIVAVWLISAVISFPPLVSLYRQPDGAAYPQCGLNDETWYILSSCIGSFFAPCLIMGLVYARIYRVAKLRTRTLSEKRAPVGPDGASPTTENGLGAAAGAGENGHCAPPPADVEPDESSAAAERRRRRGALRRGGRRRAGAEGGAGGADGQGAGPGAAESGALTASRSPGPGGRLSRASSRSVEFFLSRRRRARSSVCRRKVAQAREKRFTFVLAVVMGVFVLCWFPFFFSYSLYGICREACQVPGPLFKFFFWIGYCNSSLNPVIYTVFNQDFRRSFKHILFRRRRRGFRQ
Procedure: as §1, §6, §3

α2b adrenoreceptor [8] = biological target: T3, α2b adrenoreceptor; experiment: Competition binding, [3H]-UK14304, α2b CHO cell membranes; conditions: for inhibition of [3H]-UK14304 binding, α2b (in words): CHO cell membranes
Procedure: as §1, §4, §5, §3

α2c adrenoreceptor [9] = biological target: T4, α2c adrenoreceptor; experiment: Competition binding, [3H]-UK14304, α2c CHO cell membranes; conditions: for inhibition of [3H]-UK14304 binding, α2c (in words): CHO cell membranes
Procedure: as §1, §4, §5, §3

[10] = oral, approximately 24 mg of PE, healthy volunteers; cited from earlier work
[11] = cited from earlier work
[12] = listed as phenylephrine sulfate
[13] = at 100 μM (highest concentration evaluated)

| Compound | half-life (t1/2) / elimination half-life [1] [h] | increase in intracellular calcium, α1a calcium assay (in words) (α1a adrenoreceptor [2]) | increase in intracellular calcium, α1b calcium assay (in words) (α1b adrenoreceptor [3]) | inhibition of 3H-prazosin binding, α1a (in words) (α1a adrenoreceptor [4]) | inhibition of 3H-prazosin binding, α1b (in words) (α1b adrenoreceptor [5]) | stimulation of [35S]-GTPγS binding, α2b (in words) (α2b adrenoreceptor [6]) | stimulation of [35S]-GTPγS binding, α2c (in words) (α2c adrenoreceptor [7]) | inhibition of [3H]-UK14304 binding, α2b (in words) (α2b adrenoreceptor [8]) | inhibition of [3H]-UK14304 binding, α2c (in words) (α2c adrenoreceptor [9]) | other results |
| --- | --- | --- | --- | --- | --- | --- | --- | --- | --- | --- |
| Clc1ccc2c(c1)CCc1cccnc1C2=C1CCNCC1 [desloratadine] | 15 to 19 |  |  |  |  |  |  |  |  |  |
| CNC[C@H](O)c1cccc(O)c1 [PE, (R)-(−)-phenylephrine, reference compound] |  | increases intracellular calcium | increases intracellular calcium | inhibits binding | inhibits binding | stimulates [^35S]-GTPγS binding | stimulates [^35S]-GTPγS binding | inhibits [^3H]-UK14304 binding | inhibits [^3H]-UK14304 binding |  |
| CN1CCC(=C2c3ccccc3CCc3cccnc32)CC1 [Azatadine] | 9 to 12 |  |  |  |  |  |  |  |  |  |
| (R)-PE sulfate |  | no and A very low level of activity | minimal activity; also recorded: A very low level of activity | No appreciable binding | No appreciable binding | No activity | No activity | no appreciable binding | but not; also recorded: no appreciable binding | increase in intracellular calcium, α1a calcium assay (in words) (α1a adrenoreceptor [2]; [12]): induces minimal intracellular calcium increases; increase in intracellular calcium, α1b calcium assay (in words) (α1b adrenoreceptor [3]; [12]): induces minimal intracellular calcium increases; binding / affinity, α1a receptor (in words) (α1a adrenoreceptor [4]; concentrations up to 100 μM): no affinity; Ki (α1b adrenoreceptor [5]; [3H]-prazosin, read-out: Ki, a1b Binding (class symbol)): > 100 µM; binding / affinity, α1b receptor (in words) (α1b adrenoreceptor [5]; concentrations up to 100 μM): no affinity; activity in α2b [35S]-GTPγS assay (in words) (α2b adrenoreceptor [6]; highest concentration, 100 μM): no activity; activity in α2c [35S]-GTPγS assay (in words) (α2c adrenoreceptor [7]; highest concentration, 100 μM): no activity; Ki (α2b adrenoreceptor [8]; [3H]-UK14304, read-out: Ki, a2b Binding (class symbol)): > 100 µM; binding / affinity, α2b receptor (in words) (α2b adrenoreceptor [8]; [13]): very minimal binding; also recorded: no affinity; Ki (α2c adrenoreceptor [9]; [3H]-UK14304, read-out: Ki, a2c Binding (class symbol)): > 100 µM; binding / affinity, α2c receptor (in words) (α2c adrenoreceptor [9]; [13]): very minimal binding; also recorded: no affinity; metabolite excreted in the urine [10]: 47 % of dose |
| CCOC(=O)N1CCC(=C2c3ccc(Cl)cc3CCc3cccnc32)CC1 [loratadine] |  |  |  |  |  |  |  |  |  | time to begin to elicit antihistaminic effect ([11]; exemplary conventional formulation): 1 to 3 h |
| C[C@@H]1CN([C@H]2CC[C@](C#N)(c3ccc(F)cc3)CC2)CC[C@]1(C(=O)O)c1ccccc1 [Levocabastine] |  |  |  |  |  |  |  |  |  | duration of action ([11]; in vivo): 16 to 24 h |
